Results published in patent US20210309666A1, “SMALL MOLECULE MDM2 PROTEIN DEGRADERS” (THE REGENTS OF THE UNIVERSITY OF MICHIGAN, priority 2018, published 2021).
Read-outs that look alike come from different tables or passages of the source.

Assays:
22RV1 cells = assay: Cell growth inhibition, 4-day proliferation assay (WST-8); format: cell-based; conditions: Homo sapiens, 96 h; 22RV1, prostate carcinoma, 4 days
Experimental: (§1) The effect of representative Compounds of the Disclosure on cell viability was determined in a 4-day proliferation assay. Cells were maintained in the appropriate culture medium with 10% FBS at 37° C. and an atmosphere of 5% CO2. Also, the effect of a MDM2 inhibitor (Cpd. A; see Compound Example No. 22 of U.S. Pat. No. 8,629,141) and a known MDM2 degrader (Cpd. D, see Cpd. No. 175 of WO 2017/0176957) on cell viability in various cell lines is also included in Table 5. Cpd. […] A and D. The structure of Cpd. A is:
(§2) Cells were seeded in 96-well flat bottom (Corning COSTAR, Corning, N.Y., cat #3595) at a density of 2,000-3,000 cells/well in 100 μL of culture medium. Compounds were serially diluted in the appropriate medium, and 100 μL of the diluted compounds were added to the appropriate wells of the cell plate. After the addition of compounds, the cells were incubated at 37° C. in an atmosphere of 5% CO2 for 4 days. Cell viability was determined using the WST (2-(2-methoxy-4-nitrophenyl)-3-(4-nitrophenyl)-5-(2,4-disulfophenyl)-2H-tetrazolium, monosodium salt) Cell Counting-8 Kit (Dojindo Molecular Technologies, Inc., Rockville, Md.) according to the manufacturers' instructions.
(§3) WST-8 reagent was added to each well at a final concentration of 10% (v/v), and then the plates were incubated at 37° C. for 1-2 hours for color development. The absorbance was measured at 450 nm using a SPECTRAmax PLUS plate reader (Molecular Devices, Sunnyvale, Calif.). The readings were normalized to the DMSO-treated cells and the half maximal inhibitory concentration (IC50) was calculated by nonlinear regression (four parameters sigmoid fitted with variable slope, least squares fit, and no constraint) analysis using the GraphPad Prism 5 software (GraphPad Software, La Jolla, Calif.).

RS4;11 cells = assay: as above; format: cell-based; conditions: Homo sapiens, 96 h; RS4; 11, precursor cell lymphoblastic leukemia, 4 days; read-out: IC50
Experimental: as §1, §2, §3

MDM2 protein [1] = target: T1, MDM2 protein (Homo sapiens, UniProt Q00987); assay: Western blot analysis in 22RV1 cells, MDM2; format: cell-based; parameters: endogenous in cells; conditions: 2 hr treatment
Experimental: (§4) 22RV1 cells were treated with Cpd. No. 4 and Cpd. D (MDM2 degraders) or with Cpd. A (MDM2 inhibitor) for 2 hr. MDM2 and p53 proteins were probed using specific antibodies. GAPDH was used as the loading control. […] No. 4 and Cpd. D reduce MDM2 protein and increase p53 protein level, and that Cpd. A increases MDM2 and p53 protein levels in 22RV1 cells.

p53 protein [2] = assay: Western blot analysis in 22RV1 cells, p53; format: cell-based, human; conditions: 2 hr treatment
Experimental: as §4

MDM2 protein [3] = target: T1, MDM2 protein; assay: Western blot analysis in RS4;11 cells, MDM2; format: cell-based; parameters: No. 4 and Cpd; No. 6 (MDM2 degraders); endogenous in cells; host or cells: RS4;11; conditions: 2 hr treatment
Experimental: (§5) RS4;11 cells were treated with Cpd. No. 4 and Cpd. No. 6 (MDM2 degraders) or with Cpd. B and Cpd. C (MDM2 inhibitors) for 2 hr. MDM2 and p53 proteins were probed using specific antibodies. GAPDH was used as the loading control. […] No. 4 and Cpd. No. 6 reduce MDM2 protein and increase p53 protein level, and that Cpd. B and Cpd. C increase MDM2 and p53 protein levels in RS4;11 cells. The structures of Cpd. B (see Compound Example No. 24 of U.S. Pat. No. 8,629,141) and Cpd.

p53 protein [4] = assay: Western blot analysis in RS4;11 cells, p53; format: cell-based, human; conditions: 2 hr treatment
Experimental: as §5

[5] = Pharmacokinetics in mice, oral and IV; format: in vivo; conditions: for F: PO 50 mg/kg vs IV 10 mg/kg; for AUC: mouse, in vivo
Experimental: The pharmacokinetics of Cpd. Nos. 4 and 6, and Cpd. D were evaluated in mice.

ML-2 cells = assay: Cell growth inhibition, 4-day proliferation assay (WST-8); format: cell-based; conditions: Homo sapiens, 96 h; ML-2, acute myeloid leukemia, 4 days
Experimental: as §1, §2, §3

MOLM-14 cells = assay: as above; format: cell-based; conditions: Homo sapiens, 96 h; MOLM-14, acute myeloid leukemia, 4 days
Experimental: as §1, §2, §3

SIG-M5 cells = assay: as above; format: cell-based; conditions: Homo sapiens, 96 h; SIG-M5, acute myeloid leukemia, 4 days
Experimental: as §1, §2, §3

MOLM-13 cells = assay: as above; format: cell-based; conditions: Homo sapiens, 96 h; MOLM-13, acute myeloid leukemia, 4 days
Experimental: as §1, §2, §3

OCI-AML-2 cells = assay: as above; format: cell-based; conditions: Homo sapiens, OCI-AML2, 96 h; OCI-AML-2, acute myeloid leukemia, 4 days
Experimental: as §1, §2, §3

MV-4;11 cells = assay: as above; format: cell-based; conditions: Homo sapiens, MV4-11, 96 h, 11, acute biphenotypic B myelomonocytic leukemia, 4 days
Experimental: as §1, §2, §3

HCT116 cells = assay: as above; format: cell-based; conditions: Homo sapiens, HCT-116, 96 h; HCT116, colorectal carcinoma, 4 days
Experimental: as §1, §2, §3

OCI-AML-5 cells = assay: as above; format: cell-based; conditions: Homo sapiens, 96 h; OCI-AML-5, acute myeloid leukemia, 4 days
Experimental: as §1, §2, §3

LNCaP cells = assay: as above; format: cell-based; conditions: Homo sapiens, 96 h, prostate carcinoma, 4 days
Experimental: as §1, §2, §3

[6] = Separate PK experiment, plasma concentrations after oral dose; format: in vivo; conditions: mouse, 50 mg/kg, mice
Excerpt: In a separate PK experiment, the plasma concentrations of Cpd.

[7] = read-out: Plasma concentration, Average / Mean
[8] = read-out: Plasma concentration, Mouse 1
[9] = read-out: Plasma concentration, Mouse 2

T1 sequence (Q00987 whole entry): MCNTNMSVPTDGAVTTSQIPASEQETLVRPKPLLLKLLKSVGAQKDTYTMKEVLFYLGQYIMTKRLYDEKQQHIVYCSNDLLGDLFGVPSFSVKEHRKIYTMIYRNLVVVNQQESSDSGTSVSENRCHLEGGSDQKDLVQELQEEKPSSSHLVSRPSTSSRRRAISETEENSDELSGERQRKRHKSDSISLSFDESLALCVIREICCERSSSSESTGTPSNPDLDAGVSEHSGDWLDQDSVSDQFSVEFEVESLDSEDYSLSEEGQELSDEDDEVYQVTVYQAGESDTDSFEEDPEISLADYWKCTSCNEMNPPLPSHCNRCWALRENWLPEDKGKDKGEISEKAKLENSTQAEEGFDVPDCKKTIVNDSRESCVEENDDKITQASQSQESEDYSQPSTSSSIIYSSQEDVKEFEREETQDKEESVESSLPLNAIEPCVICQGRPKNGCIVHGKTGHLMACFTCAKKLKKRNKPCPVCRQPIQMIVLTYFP

SMILES | IC50 (22RV1 cells) [nM] | IC50 (RS4;11 cells) [nM] | MDM2 protein level (MDM2 protein [1]) | p53 protein level (p53 protein [2]) | MDM2 protein level (MDM2 protein [3]) | p53 protein level (p53 protein [4]) | F [5] [%] | AUC ([5]; IV, 10 mg/kg) [ng·h/mL] | AUC ([5]; PO, 50 mg/kg) [ng·h/mL] | IC50 (ML-2 cells) [nM] | IC50 (MOLM-14 cells) [nM] | IC50 (SIG-M5 cells) [nM] | IC50 (MOLM-13 cells) [nM] | IC50 (OCI-AML-2 cells) [nM] | IC50 (MV-4;11 cells) [nM] | IC50 (HCT116 cells) [nM] | IC50 (OCI-AML-5 cells) [nM] | IC50 (LNCaP cells) [nM] | concentration at 1 h [6, 7] [ng/mL] | concentration at 1 h [6, 8] [ng/mL] | other results
O=C(O)c1ccc(NC(=O)[C@@H]2NC3(CCCCC3)[C@@]3(C(=O)Nc4cc(Cl)ccc43)[C@H]2c2cccc(Cl)c2F)cc1 [Cpd. A, reference compound] | 1330 | 138 | increases | increases | – | – | – | – | – | – | – | – | – | – | – | – | – | – | – | – | –
O=C(N[C@H]1CC[C@H](C(=O)O)CC1)[C@@H]1NC2(CCCCC2)[C@@]2(C(=O)Nc3cc(Cl)ccc32)[C@H]1c1cccc(Cl)c1F [Cpd. B, reference compound] | – | – | – | – | increase | increase | – | – | – | – | – | – | – | – | – | – | – | – | – | – | –
O=C(NC12CCC(C(=O)O)(CC1)CC2)[C@@H]1NC2(CCCCC2)[C@@]2(C(=O)Nc3cc(Cl)ccc32)[C@H]1c1cccc(Cl)c1F [Cpd. C, reference compound] | – | – | – | – | increase | increase | – | – | – | – | – | – | – | – | – | – | – | – | – | – | –
O=C1CCC(N2Cc3c(C#CC4CCN(C(=O)c5ccc(NC(=O)[C@@H]6NC7(CCCCC7)[C@@]7(C(=O)Nc8cc(Cl)ccc87)[C@H]6c6cccc(Cl)c6F)cc5)CC4)cccc3C2=O)C(=O)N1 (stereo partly shown) [Cpd. D, reference compound] | 45 | 2.9 | reduce | increase | – | – | 1.27 | 193000 | 12300 | 11 | 78 | 110 | 34 | 110 | 10 | 400 | 150 | 33 | 77.9 | 78 | concentration at 1 h [6, 9]: 77.8 ng/mL; concentration at 3 h [6, 7]: 624 ng/mL; concentration at 3 h [6, 8]: 510 ng/mL; concentration at 3 h [6, 9]: 738 ng/mL; concentration at 6 h [6, 7]: 414 ng/mL; concentration at 6 h [6, 8]: 234 ng/mL; concentration at 6 h [6, 9]: 594 ng/mL
O=C1CCC(N2Cc3c(C#CC4CCN(C(=O)[C@H]5CC[C@H](NC(=O)[C@@H]6NC7(CCCCC7)[C@@]7(C(=O)Nc8cc(Cl)ccc87)[C@H]6c6cccc(Cl)c6F)CC5)CC4)cccc3C2=O)C(=O)N1 (stereo partly drawn) [Cpd. No. 4, (3′R,4′S,5′R)-6″-chloro-4′-(3-chloro-2-fluorophenyl)-N-((1r,4R)-4-(4-((2-(2,6-dioxopiperidin-3-yl)-1-oxoisoindolin-4-yl)ethynyl)piperidine-1-carbonyl)cyclohexyl)-2″-oxodispiro[cyclohexane-1,2′-pyrrolidine-3′,3″-indoline]-5′-carboxamide] | 14 | 0.72 | reduce | increase | reduce | increase | 0.93 | 156000 | 7250 | 1.2 | 7.8 | 21 | 5.1 | 21 | 2.3 | 86 | 23 | 3.2 | 0.62 | 0.231 | concentration at 1 h [6, 9]: 1.01 ng/mL; concentration at 3 h [6, 7]: 1320 ng/mL; concentration at 3 h [6, 8]: 902 ng/mL; concentration at 3 h [6, 9]: 1730 ng/mL; concentration at 6 h [6, 7]: 338 ng/mL; concentration at 6 h [6, 8]: 231 ng/mL; concentration at 6 h [6, 9]: 446 ng/mL
O=C1CCC(N2Cc3c(C#CC4CCN(C(=O)C56CCC(NC(=O)[C@@H]7NC8(CCCCC8)[C@@]8(C(=O)Nc9cc(Cl)ccc98)[C@H]7c7cccc(Cl)c7F)(CC5)CC6)CC4)cccc3C2=O)C(=O)N1 (stereo partly drawn) [Cpd. No. 6, (3′R,4′S,5′R)-6″-chloro-4′-(3-chloro-2-fluorophenyl)-N-(4-(4-((2-(2,6-dioxopiperidin-3-yl)-1-oxoisoindolin-4-yl)ethynyl)piperidine-1-carbonyl)bicyclo[2.2.2]octan-1-yl)-2″-oxodispiro[cyclohexane-1,2′-pyrrolidine-3′,3″-indoline]-5′-carboxamide] | 42 | 2.4 | – | – | reduce | increase | 5.7 | 154000 | 43500 | 4.9 | 25 | 63 | 18 | 69 | 6.4 | 310 | 71 | 13 | 0.42 | 0.576 | concentration at 1 h [6, 9]: 0.257 ng/mL; concentration at 3 h [6, 7]: 3220 ng/mL; concentration at 3 h [6, 8]: 3110 ng/mL; concentration at 3 h [6, 9]: 3330 ng/mL; concentration at 6 h [6, 7]: 2380 ng/mL; concentration at 6 h [6, 8]: 2320 ng/mL; concentration at 6 h [6, 9]: 2430 ng/mL
